Target: CFTR-mediated chloride transport (Homo sapiens, UniProt P13569)
Format: cell-based
Settings: enteroid cells incubated with test compound 18-24 hours, acute 10 μM forskolin and 300 nM Compound III; for Max. Activity: % of chloride transport with 3 μM Compound A, 3 μM Compound II and 300 nM acute Compound III triple combination control
In short: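 Membrane-potential fluorescence AUC over 15 min quantified CFTR chloride transport after acute forskolin (10 μM), IBMX (100 μM) and Compound III (300 nM) in chloride-free buffer. Human enteroid cells were pretreated with compound for 18–24 h; % Activity is relative to 3 μM Compound A + 3 μM Compound II + 300 nM Compound III.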

Sequence of CFTR-mediated chloride transport (P13569 whole entry, looked up): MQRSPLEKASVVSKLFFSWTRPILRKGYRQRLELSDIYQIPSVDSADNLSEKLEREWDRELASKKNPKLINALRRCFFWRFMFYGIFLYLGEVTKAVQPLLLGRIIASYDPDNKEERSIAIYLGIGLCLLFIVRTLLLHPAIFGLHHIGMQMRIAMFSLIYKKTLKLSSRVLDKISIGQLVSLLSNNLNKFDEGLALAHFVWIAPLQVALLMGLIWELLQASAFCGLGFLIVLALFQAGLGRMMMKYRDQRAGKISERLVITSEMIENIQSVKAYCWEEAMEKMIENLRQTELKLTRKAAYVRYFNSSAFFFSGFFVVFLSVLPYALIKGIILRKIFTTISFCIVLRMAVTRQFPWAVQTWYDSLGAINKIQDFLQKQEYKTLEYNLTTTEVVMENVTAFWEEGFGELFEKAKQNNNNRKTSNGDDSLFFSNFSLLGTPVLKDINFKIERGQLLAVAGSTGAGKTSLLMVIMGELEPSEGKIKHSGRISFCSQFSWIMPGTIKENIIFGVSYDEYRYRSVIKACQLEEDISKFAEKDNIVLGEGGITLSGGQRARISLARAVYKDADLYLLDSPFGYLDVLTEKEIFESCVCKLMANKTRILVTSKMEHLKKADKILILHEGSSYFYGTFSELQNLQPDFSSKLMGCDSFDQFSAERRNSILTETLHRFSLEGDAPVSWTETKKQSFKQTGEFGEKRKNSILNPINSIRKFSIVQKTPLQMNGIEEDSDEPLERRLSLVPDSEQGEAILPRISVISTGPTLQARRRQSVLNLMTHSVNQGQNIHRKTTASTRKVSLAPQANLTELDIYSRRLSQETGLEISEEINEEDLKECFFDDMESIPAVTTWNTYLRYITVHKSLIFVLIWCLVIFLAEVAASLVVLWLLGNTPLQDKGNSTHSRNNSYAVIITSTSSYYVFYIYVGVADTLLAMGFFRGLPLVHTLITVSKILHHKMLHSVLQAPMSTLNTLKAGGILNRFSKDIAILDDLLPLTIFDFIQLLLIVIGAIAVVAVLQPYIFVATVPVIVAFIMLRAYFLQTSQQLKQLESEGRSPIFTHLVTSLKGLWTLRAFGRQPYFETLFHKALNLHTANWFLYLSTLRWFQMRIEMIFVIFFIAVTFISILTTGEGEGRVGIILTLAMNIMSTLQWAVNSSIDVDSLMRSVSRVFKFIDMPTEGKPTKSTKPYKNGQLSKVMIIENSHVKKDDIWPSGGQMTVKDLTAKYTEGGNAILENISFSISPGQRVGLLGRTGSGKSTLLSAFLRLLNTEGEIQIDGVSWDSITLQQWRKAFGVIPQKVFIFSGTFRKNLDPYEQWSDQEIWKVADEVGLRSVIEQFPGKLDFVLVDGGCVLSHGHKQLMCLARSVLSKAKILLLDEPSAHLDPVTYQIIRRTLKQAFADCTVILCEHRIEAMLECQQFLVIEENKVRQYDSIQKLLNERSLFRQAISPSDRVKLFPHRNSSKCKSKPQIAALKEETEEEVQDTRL

Row | SMILES | EC50 [µM] | Max. Activity
1 | CC1(C)C[C@@H]2CCCNc3cccc(n3)S(=O)(=O)NC(=O)c3ccc(N4CCN(CCC56CC7CC(CC(C7)C5)C6)C4=O)nc3N1C2 [Compound 228, (14S)-8-{3-[2-(Adamantan-1-yl)ethyl]-2-oxoimidazolidin-1-yl}-12,12-dimethyl-2λ^6-thia-3,9,11,18,23-pentaazatetracyclo[17.3.1.111,14.05,10]tetracosa-1(22),5,7,9,19(23),20-hexaene-2,2,4-trione] | < 1 | ++ (++ is 30-60%)
2 | CC1(C)CCC2CNc3cccc(n3)S(=O)(=O)NC(=O)c3ccc(-n4ccc(OCCC5(C(F)(F)F)CC5)n4)nc3N21 (stereo not drawn) [Compound 41, 7,7-dimethyl-11-(3-{2-[1-(trifluoromethyl)cyclopropyl]ethoxy}-1H-pyrazol-1-yl)-17λ^6-thia-2,8,10,16,22-pentaazatetracyclo[16.3.1.04,8.09,14]docosa-1(22),9,11,13,18,20-hexaene-15,17,17-trione] | > 3 | + (+ is <30%)
3 | CC1(C)C[C@@H]2CCCNc3cccc(n3)S(=O)(=O)NC(=O)c3ccc(N4CC[C@H](CCCC5(C(F)(F)F)CC5)C4=O)nc3N1C2 (single isomer, unassigned) [Compound 174] | < 1 | +++ (+++ is >60%)
4 | CC(C)(C)CCO[C@H]1CCN(c2ccc3c(n2)N2C[C@@H](CCCNc4cccc(n4)S(=O)(=O)NC3=O)CC2(C)C)C1=O (single isomer, unassigned) [Compound 171] | < 1 | +++ (+++ is >60%)
5 | CC1(C)C[C@H]2CCCCc3cccc(n3)S(=O)(=O)NC(=O)c3ccc(-n4ccc(OCCC5(C(F)(F)F)CC5)n4)nc3N1C2 (single isomer, unassigned) [Compound 87, 12,12-dimethyl-8-(3-{2-[1-(trifluoromethyl)cyclopropyl]ethoxy}-1H-pyrazol-1-yl)-2λ^6-thia-3,9,11,23-tetraazatetracyclo[17.3.1.111,14.05,10]tetracosa-1(23),5,7,9,19,21-hexaene-2,2,4-trione] | < 1 | +++ (+++ is >60%)
6 | CC1(C)C[C@H]2CCCCn3ccc(n3)S(=O)(=O)NC(=O)c3ccc(-n4ccc(OCCCC5(C(F)(F)F)CC5)n4)nc3N1C2 (single isomer, unassigned) [Compound 276, 21,21-dimethyl-4-(3-{3-[1-(trifluoromethyl)cyclopropyl]propoxy}-1H-pyrazol-1-yl)-10λ^6-thia-1,3,9,14,23-pentaazatetracyclo[17.2.1.111,14.02,7]tricosa-2,4,6,11(23),12-pentaene-8,10,10-trione] | < 1 | ++ (++ is 30-60%)
7 | Cc1c2cnn1CCCC1CN(c3nc(-n4ccc(OCC(C)(C)C(F)(F)F)n4)ccc3C(=O)NS2(=O)=O)C(C)(C)C1 (single isomer, unassigned) [Compound 285, 20,20,22-trimethyl-4-[3-(3,3,3-trifluoro-2,2-dimethylpropoxy)-1H-pyrazol-1-yl]-10λ^6-thia-1,3,9,13,14-pentaazatetracyclo[16.2.1.111,14.02,7]docosa-2,4,6,11(22),12-pentaene-8,10,10-trione] | < 1 | + (+ is <30%)
8 | CC1(C)C[C@H]2CCCCNc3ccc(cn3)S(=O)(=O)NC(=O)c3ccc(-n4ccc(OCCC5(C(F)(F)F)CC5)n4)nc3N1C2 (single isomer, unassigned) [Compound 67, 12,12-dimethyl-8-(3-{2-[1-(trifluoromethyl)cyclopropyl]ethoxy}-1H-pyrazol-1-yl)-2λ^6-thia-3,9,11,19,21-pentaazatetracyclo[18.2.2.111,14.05,10]pentacosa-1(23),5,7,9,20(24),21-hexaene-2,2,4-trione] | < 1 | +++ (+++ is >60%)
9 | CC1(C)C[C@@H]2CCCNc3cccc(n3)S(=O)(=O)NC(=O)c3ccc(-n4ccc(OC[C@@H](O)CC5(C(F)(F)F)CC5)n4)nc3N1C2 (single isomer, unassigned) [Compound 283] | < 1 | +++ (+++ is >60%)
10 | CC1(C)C[C@H]2CCCn3ccc(n3)S(=O)(=O)NC(=O)c3ccc(N4CC[C@H](OCCC5(C(F)(F)F)CC5)C4=O)nc3N1C2 (single isomer, unassigned) [Compound 192, 20,20-dimethyl-4-(2-oxo-3-{2-[1-(trifluoromethyl)cyclopropyl]ethoxy}pyrrolidin-1-yl)-10λ^6-thia-1,3,9,14,22-pentaazatetracyclo[16.2.1.111,14.02,7]docosa-2,4,6,11(22),12-pentaene-8,10,10-trione] | < 1 | +++ (+++ is >60%)
11 | CC1(C)CC[C@H]2CCCOc3cccc(c3)S(=O)(=O)NC(=O)c3ccc(-n4ccc(OCCC5(C(F)(F)F)CC5)n4)nc3N21 (single isomer, unassigned) [Compound 8, 12,12-dimethyl-8-(3-{2-[1-(trifluoromethyl)cyclopropyl]ethoxy}-1H-pyrazol-1-yl)-19-oxa-2λ^6-thia-3,9,11-triazatetracyclo[18.3.1.05,10.011,15]tetracosa-1(24),5(10),6,8,20,22-hexaene-2,2,4-trione] | > 3 | + (+ is <30%)
12 | CC1(C)C[C@H]2CCCn3cc(cn3)S(=O)(=O)NC(=O)c3ccc(-n4ccc(OCCC5(C(F)(F)F)CC5)n4)nc3N1C2 (single isomer, unassigned) [Compound 119, 20,20-dimethyl-4-(3-{2-[1-(trifluoromethyl)cyclopropyl]ethoxy}-1H-pyrazol-1-yl)-10λ^6-thia-1,3,9,13,14-pentaazatetracyclo[16.2.1.111,14.02,7]docosa-2,4,6,11(22),12-pentaene-8,10,10-trione] | < 1 | +++ (+++ is >60%)
13 | CC1CCC2CN(c3nc(-n4ccc(OCCC5(C(F)(F)F)CC5)n4)ccc3C(=O)NS(=O)(=O)c3cccc(n3)N1)C(C)(C)C2 (stereo not drawn) [Compound 36, 12,12,17-trimethyl-8-(3-{2-[1-(trifluoromethyl)cyclopropyl]ethoxy}-1H-pyrazol-1-yl)-2λ^6-thia-3,9,11,18,23-pentaazatetracyclo[17.3.1.111,14.05,10]tetracosa-1(23),5(10),6,8,19,21-hexaene-2,2,4-trione] | < 1 | +++ (+++ is >60%)
14 | CC1(C)C[C@@H]2CCCNc3cccc(n3)S(=O)(=O)NC(=O)c3ccc(N4CC[C@H](OCCC56CC7CC(CC(C7)C5)C6)C4=O)nc3N1C2 (single isomer, unassigned) [Compound 240] | < 1 | ++ (++ is 30-60%)
15 | CC1(C)C[C@H]2CCCCn3ccc(n3)S(=O)(=O)NC(=O)c3ccc(-n4ccc(OCCC5(C(F)(F)F)CC5)n4)nc3N1C2 (single isomer, unassigned) [Compound 44, 21,21-dimethyl-4-(3-{2-[1-(trifluoromethyl)cyclopropyl]ethoxy}-1H-pyrazol-1-yl)-10λ^6-thia-1,3,9,14,23-pentaazatetracyclo[17.2.1.111,14.02,7]tricosa-2,4,6,11(23),12-pentaene-8,10,10-trione] | > 3 | ++ (++ is 30-60%)
16 | CC1(C)C[C@H]2CCCCn3ccc(n3)S(=O)(=O)NC(=O)c3ccc(-n4ccc(OCCCC5(C(F)(F)F)CC5)n4)nc3N1C2 (single isomer, unassigned) [Compound 277, 21,21-dimethyl-4-(3-{3-[1-(trifluoromethyl)cyclopropyl]propoxy}-1H-pyrazol-1-yl)-10λ^6-thia-1,3,9,14,23-pentaazatetracyclo[17.2.1.111,14.02,7]tricosa-2,4,6,11(23),12-pentaene-8,10,10-trione] | > 3 | + (+ is <30%)
17 | CC(C)(C)CCCO[C@H]1CCN(c2ccc3c(n2)N2C[C@@H](CCCNc4cccc(n4)S(=O)(=O)NC3=O)CC2(C)C)C1=O (single isomer, unassigned) [Compound 247] | < 1 | +++ (+++ is >60%)
18 | CC1(CC2CCN(c3ccc4c(n3)N3C[C@@H](CCCNc5cccc(n5)S(=O)(=O)NC4=O)CC3(C)C)C2=O)CCCCC1 (stereo partly drawn) [Compound 101, (14S)-12,12-dimethyl-8-{3-[(1-methylcyclohexyl)methyl]-2-oxopyrrolidin-1-yl}-2λ^6-thia-3,9,11,18,23-pentaazatetracyclo[17.3.1.111,14.05,10]tetracosa-1(22),5,7,9,19(23),20-hexaene-2,2,4-trione] | < 1 | ++ (++ is 30-60%)
19 | CC1(C)CC[C@H]2CCCNc3cccc(n3)S(=O)(=O)NC(=O)c3ccc(-n4ccc(OCCC5(C(F)(F)F)CC5)n4)nc3N21 [Compound 34, (15R)-12,12-dimethyl-8-(3-{2-[1-(trifluoromethyl)cyclopropyl]ethoxy}-1H-pyrazol-1-yl)-2λ^6-thia-3,9,11,19,24-pentaazatetracyclo[18.3.1.05,10.011,15]tetracosa-1(23),5,7,9,20(24),21-hexaene-2,2,4-trione] | < 1 | +++ (+++ is >60%)
20 | Cc1ccc2nc1NCCC[C@H]1CN(c3nc(-n4ccc(OCCC5(C(F)(F)F)CC5)n4)ccc3C(=O)NS2(=O)=O)C(C)(C)C1 (single isomer, unassigned) [Compound 114, 12,12,20-trimethyl-8-(3-{2-[1-(trifluoromethyl)cyclopropyl]ethoxy}-1H-pyrazol-1-yl)-2λ^6-thia-3,9,11,18,23-pentaazatetracyclo[17.3.1.111,14.05,10]tetracosa-1(23),5(10),6,8,19,21-hexaene-2,2,4-trione] | > 3 | + (+ is <30%)
21 | CC1(C)C[C@H]2CCn3ccc(n3)S(=O)(=O)NC(=O)c3ccc(-n4ccc(OCCCC5(C(F)(F)F)CC5)n4)nc3N1C2 (single isomer, unassigned) [Compound 278, 19,19-dimethyl-4-(3-{3-[1-(trifluoromethyl)cyclopropyl]propoxy}-1H-pyrazol-1-yl)-10λ^6-thia-1,3,9,14,21-pentaazatetracyclo[15.2.1.111,14.02,7]henicosa-2,4,6,11(21),12-pentaene-8,10,10-trione] | > 3 | + (+ is <30%)

— US11866450B2, “Modulators of Cystic Fibrosis Transmembrane Conductance regulator, pharmaceutical compositions, methods of treatment, and process for making the modulators” (priority 2018, dated 2024)
